Results on 1 compound are retold here after US20150168386A1, “METHOD AND SYSTEM FOR IDENTIFYING LEAKY LUNG EPITHELIAL BARRIER” (priority 2013, published 2015).

Each structure is given as a SMILES string.

Details of series [1]: species or system C57BL/6 mice. The conditions noted are these: mouse, in vivo. From the text:
In this experiment, 6-8 week old C57BL/6 mice were infected with a clinical isolate of RSV 9 (strain A2) intranasally (i.n.) on day 0 (d0), and then challenged with orally inhaled mannitol on days 2 and 4 as indicated by the arrows in the schematic (top of figure). Two hours after each mannitol inhalation, urine was collected from mice by scruffing, and analyzed for mannitol using a colorimetric assay. They are expressed as fold change in urine mannitol relative to uninfected control mice on d0, which was set at 1. Data are mean±standard error of the mean, of n=5-6 mice per group. * indicated p<0.05.

Series [2] has as its system 16HBE cells. Put plainly: flux of mannitol across human bronchial epithelial monolayers. Conditions: 16HBE cells confluent on semipermeable membrane; lower chamber after 1 hour, colorimetric assay; unstimulated or PolyI:C pretreated 18 hours. It is filed as in vitro ADME. The method, then: The x-axis indicates the concentration of mannitol applied to the upper chamber of 16HBE cells grown to confluence on a semipermeable membrane. The y-axis indicates the concentration of mannitol detected in the lower chamber after 1 hour, determined using a colorimetric assay (where OD refers to optical density). 16HBE cells were either unstimulated (open bars) or pretreated with the viral mimetic PolyI:C (closed bars) for 18 hours prior to analysis of mannitol permeability. Note that in both unstimulated and PolyI:C-stimulated cells, the mannitol concentration detected in the lower chamber increased steadily with the concentration of mannitol applied to the top chamber (i.e. there was no plateau). This is indicative of movement across the monolayer via paracellular routes (as opposed to receptor mediated transport, for example).

Series [3] is described as follows: urinary mannitol clearance after inhaled mannitol in human subjects. It is filed as in vivo. The conditions noted are these: 635 mg inhaled mannitol; urine over 24 hours, mass spectrometry; 6 subjects with asthma symptoms vs 2 healthy controls. An excerpt: Results are expressed as urinary mannitol clearance, or the concentration in the urine samples collected multiplied by the amount of urine produced. […] The horizontal bar indicates mean values.

As to `OC[C@@H](O)[C@@H](O)[C@H](O)[C@H](O)CO` [mannitol], the “excretion of orally inhaled mannitol (fold change in urine mannitol relative to uninfected control mice on d0)” value in series [1] is on record as “higher in mice infected with respiratory syncytial virus (RSV) infection”. Besides, in series [2], the “flux of mannitol across the monolayer” value was “non-saturable”. Moreover, the urinary mannitol clearance entry in series [3] is “Subjects with asthma symptoms had higher mannitol clearance on average”.
